# In patent publication US6455530B1, “2R,4S,S,S- and 2S,4R,S,S-hydroxyitraconazole” (Sepracor Inc., priority 1996, dated 2002):
# Columns and labels:
# [1] = tested on: Candida albicans; test: Kirby-Bauer testing (paper disk zones of inhibition); type: cell-based; settings: 10 μl of 10 mg/mL solution on 7 mm paper disk, Sabouraud Dextrose agar, 30° C. for 16 hours
# Procedure: (§1) Actively growing cultures of Candida albicans, Cryptococcus neoformens and Saccharomnyces cerevisiae were prepared as described above. The cultures were diluted to a 0.5 McFarland standard and swabbed onto a 150 mm Sabouraud Dextrose agar plates. Paper disks (7 mm) were placed onto the agar plates using a disk dispenser. Next 10 μl of 10 mg/mL solutions of each sample hydroxy-itraconazole was pipetted onto separate paper disks. The plates were then incubated at 30° C. for 16 hours. Zones of inhibition were then measured in mm. Data Represent Zones of Inhibition in mm.
# [2] = tested on: Cryptococcus neoformens; test: as above; type: cell-based; settings: 10 μl of 10 mg/mL solution on 7 mm paper disk, Sabouraud Dextrose agar, 30° C. for 16 hours
# Procedure: as §1
# [3] = tested on: Saccharomyces cerevisae; test: as above; type: cell-based; settings: 10 μl of 10 mg/mL solution on 7 mm paper disk, Sabouraud Dextrose agar, 30° C. for 16 hours
# Procedure: as §1
# [4] = oral, daily administration; cited from earlier work
Structure (SMILES),"Zones of Inhibition, Candida albicans [1] [mm]","Zones of Inhibition, Cryptococcus neoformens [2] [mm]","Zones of Inhibition, Saccharomyces cerevisae [3] [mm]",Time at which peak plasma levels are attained [4] [days],zone of inhibition at 10000 µg/mL ([1]; Candida albicans) [mm],zone of inhibition at 10000 µg/mL ([2]; Cryptococcus) [mm],zone of inhibition at 10000 µg/mL ([3]; Saccharomyces) [mm]
"C[C@H]([C@@H](C)O)n1ncn(-c2ccc(N3CCN(c4ccc(OC[C@@H]5CO[C@@](Cn6cncn6)(c6ccc(Cl)cc6Cl)O5)cc4)CC3)cc2)c1=O (single isomer, unassigned) [B diastereomer, (2S,4R)-4-[4-[4-[4-[[2-(2,4-Dichlorophenyl)-2-(1H-1,2,4,-triazole-1-ylmethyl)-1,3-dioxolan-4-yl}methoxy]phenyl]-1-piperazinyl]phenyl]-2,4-dihydro-2-[(1R*,2R*)-(2-hydroxy-1-methylpropyl)-3H-1,2,4-triazol-3-one]",27,32,25,,,,
"CCC(C)n1ncn(-c2ccc(N3CCN(c4ccc(OCC5COC(Cn6cncn6)(c6ccc(Cl)cc6Cl)O5)cc4)CC3)cc2)c1=O (racemic) [± Itraconazole, 4-[4-[4-[4-[[2-(2,4-dichlorophenyl)-2-(1H-1,2,4-triazol-1-ylmethyl)-1,3-dioxolan-4-yl]methoxy]phenyl]-1-piperazinyl]phenyl]-2,4dihydro-2-(1-methylpropyl)-3H-1,2,4triazol-3-one, reference compound]",,,,15,17,22,15
"C[C@H]([C@@H](C)O)n1ncn(-c2ccc(N3CCN(c4ccc(OC[C@H]5CO[C@](Cn6cncn6)(c6ccc(Cl)cc6Cl)O5)cc4)CC3)cc2)c1=O (single isomer, unassigned) [A diastereomer, (2R,4S)-4-[4-[4-[4-[[2-(2,4-Dichlorophenyl)-2-(1H-1,2,4-triazole-1-ylmethyl)-1,3-dioxolan-4-yl]methoxy]phenyl]-[-piperazinyl[phenyl]-2,4dihydro-2-[(1R*,2R*)-(2-hydroxy-1-methylpropyl)]-3H -1,2,4-triazol-3-one]",23,34,23,,,,
